The record followed here is patent EP0094833A2, “Novel 1,2-benzisoxazole derivatives” (Dainippon Pharmaceutical Co., Ltd., priority 1982, dated 1983).

In brackets after ≈: the same amount, converted by molar mass. Counter-ions that a name gives are not always drawn. Like-named read-outs stand apart in the source and are kept apart here.

One test concerns ileum. As to the kind of experiment: Inhibitory effect on contractile response induced by acetylcholine (Anti-ACh), isolated ileum. The conditions noted are these: Cavia porcellus, read-out: Anti-ACh (IC50 : g/ml). Format: cell-based, guinea pig.
In test [1] the test system is spontaneous gastric motility. As to the kind of experiment: Inhibitory effect on spontaneous gastric motility (Anti-SGM) in conscious rats. It is filed as in vivo, male Wistar strain rats. The conditions noted are these: Rat, maximum percent inhibition of initial spontaneous motility. As to the method:
(§1) Experiment 3 Inhibitory effect on spontaneous gastric motility (Anti-SGM)
(§2) This effect was examined using male Wistar strain rats or male Albino strain rabbits, with chronically implanted strain gauge force transducer. The rats or rabbits were allowed to stand for 3 - 5 days for recovery from the surgery and fasted for 18 hours before experiment. Then, spontaneous gastric motility in conscious rats or rabbits was recorded and the sum of amplitude of each contraction was calculated every 15 minutes. Inhibitory effect of test compound by oral administration was expressed as a maximum percent inhibition of initial spontaneous motility.

The subject of the next test is guinea pig taenia-coli. The test is described as follows: Inhibitory effect on contractile response induced by potassium chloride (Anti-KCl), isolated taenia-coli. Format: cell-based. To be noted: Cavia porcellus, read-out: IC50 (g/ml) Anti-KCl. How it is done: Experiment 2 Inhibitory effect on contractile response induced by potassium chloride (Anti-KC1) In the same manner as described in the above Experiment 1, isolated guinea pig taenia-coli about 3 cm in length was prepared, and mounted in Tyrode's solution. The contractile response was measured with an isometric transducer and recorded on recticorder. Each preparation was adjusted to a tension of .lg and allowed to equilibrate for 30 minutes before measuring the effects of the test compounds. Test compounds were applied to 5 minutes before adding potassium chloride (40 mM). Each Compound was tested in 2 - 3 concentrations.

The subject of test [2] is spontaneous gastric motility. The test is described as follows: Inhibitory effect on spontaneous gastric motility (Anti-SGM) in conscious rabbits. Format: in vivo, male Albino strain rabbits. The conditions noted are these: Rabbit, 100 mg/kg po, maximum percent inhibition of initial spontaneous motility. How it is done: as §1, §2
Where [3] appears, read: guinea pig ileum, acetylcholine 2 X 10^-8 g/ml, test compound applied 2 minutes before.
[4] abbreviates: guinea pig taenia-coli, potassium chloride 40 mM, test compound applied 5 minutes before.

Take `CC[N+](C)(CC)CCOC(=O)C(c1noc2ccccc12)C1CCCCC1` (racemic) [Example 34]: the IC50 with ileum (setting [3]) came out at 0.026 µg/mL. On the same count and under the same terms, as for `C[N+]1(C)CCC(OC(=O)C(c2noc3ccc(Cl)cc23)C2CCCCC2)CC1` (racemic) [Example 35], the figure is 0.057 µg/mL.

`Br.CCN(CC)CCCOC(=O)C(c1noc2ccccc12)C1CCCCC1` (stereo not drawn) [Example 1, 3-Diethylaminopropyl α-cyclohexyl-1,2-benzisoxazole-3-acetate hydrobromide]: the IC50 in the test on ileum (setting [3]) was 0.16 µg/mL; with guinea pig taenia-coli (setting [4]), 0.85 µg/mL. The “Inhibition (%)” value in test [1] (100 mg/kg po) is recorded as 36%; in test [1] (200 mg/kg po) it was 49%; in test [2], 52%. Consider `CN1CCC(OC(=O)C(c2noc3ccc(Cl)cc23)C2CCCCC2)CC1.O=C(O)C(=O)O` (stereo not drawn) [Example 2, 1-Methyl-4-piperidyl α-cyclohexyl-5-chloro-1,2-benzisoxazole-3-acetate oxalate], for which the IC50 in the test on ileum (setting [3]) is 0.34 µg/mL; in the test on guinea pig taenia-coli (setting [4]) it was 3.2 µg/mL. `CCN(CC)CCOC(=O)C(c1noc2ccccc12)C1CCCCC1` (stereo not shown) [Example 3]: the IC50 in the test on ileum (setting [3]) is 0.12 µg/mL (≈ 0.335 µM); in the test with guinea pig taenia-coli (setting [4]), 1 µg/mL (≈ 2.79 µM).

As for `CCN(CC)CC(C)OC(=O)C(c1noc2ccccc12)C1CCCCC1` (stereo not shown) [Example 4], the values for the IC50 with ileum (setting [3]) and in the test with guinea pig taenia-coli (setting [4]) were 0.42 µg/mL (≈ 1.13 µM) and 1.6 µg/mL (≈ 4.3 µM), respectively. With `CN1CCC(OC(=O)C(c2noc3ccccc23)C2CCCCC2)CC1` (stereo not shown) [Example 5], the IC50 in the test on ileum (setting [3]) came to 0.037 µg/mL (≈ 0.104 µM). Still for that read-out and setting: as for `CCN(CC)CCCC(C)OC(=O)C(c1noc2ccccc12)C1CCCCC1` (stereo not shown) [Example 7], the figure is 0.69 µg/mL (≈ 1.72 µM); as for `CCN(CC)CCCCOC(=O)C(c1noc2ccccc12)C1CCCCC1` (stereo not shown) [Example 8], 0.48 µg/mL (≈ 1.24 µM). Take `O=C(OCCN1CCCCC1)C(c1noc2ccccc12)C1CCCCC1` (stereo not shown) [Example 9]: the IC50 came out at 0.41 µg/mL (≈ 1.11 µM) in the test with ileum (setting [3]) and 2.7 µg/mL (≈ 7.29 µM) with guinea pig taenia-coli (setting [4]).

For `CCN(CC)CCOC(=O)C(c1noc2ccc(Cl)cc12)C1CCCCC1` (stereo not shown) [Example 10], the figures for the IC50 in the test on ileum (setting [3]) and in the test with guinea pig taenia-coli (setting [4]) were 0.87 µg/mL (≈ 2.21 µM) and 3.3 µg/mL (≈ 8.4 µM), respectively. For `CN1CCC(OC(=O)C(Cc2ccccc2)(Cc2ccccc2)c2noc3ccccc23)CC1` [Example 28] the same measures were 0.65 µg/mL (≈ 1.43 µM) and 0.56 µg/mL (≈ 1.23 µM).

On to `O=C(OCCN1CCCC1)C(Cc1ccccc1)(Cc1ccccc1)c1noc2ccccc12` [Example 29], for which the IC50 in the test with ileum (setting [3]) stood at 0.96 µg/mL (≈ 2.11 µM). As to `CC[N+]1(C)CCC(OC(=O)C(c2noc3ccccc23)C2CCCCC2)CC1.[Br-]` (stereo not shown) [Example 31, 1-Ethyl-1-methyl-4-[2-(1,2-benzisoxazol-3-yl)-2-cyclohexylacetoxy]piperidinium bromide], the IC50 in the test on ileum (setting [3]) is 0.014 µg/mL. For the compound `CC[N+](C)(CC)CCCOC(=O)C(c1noc2ccccc12)C1CCCCC1` (stereo not shown) [Example 32], the IC50 in the test with ileum (setting [3]) turned out to be 0.21 µg/mL. Same read-out and setting: in the case of `C[N+]1(C)CCC(OC(=O)C(c2noc3ccccc23)C2CCCCC2)CC1` (stereo not shown) [Example 33] it was 0.013 µg/mL. In the case of `COc1ccc(Cc2nccc3cc(OC)c(OC)cc23)cc1OC` [Papaverine hydrochloride, reference compound], the IC50 in the test on ileum was 13 µg/mL; in the test with guinea pig taenia-coli, 1.3 µg/mL.

Take `CCN(CC)CC(C)OC(=O)C1CCCCC1(O)C1CCCCC1` (stereo not shown) [Rociverine, reference compound]: the results for the IC50 with ileum (setting [3]) and with guinea pig taenia-coli (setting [4]) were 1.1 µg/mL (≈ 3.24 µM) and 5.4 µg/mL (≈ 15.9 µM), respectively. As to `CCCC[N+]1(C)C2CC(OC(=O)C(CO)c3ccccc3)CC1C1OC12` (stereo not shown) [Scopolamine-N-butyl bromide, reference compound], in the test on ileum (setting [3]), the IC50 was 0.089 µg/mL.
